pIC50: −log10 of the molar value.
Assays:
Assay in all cases: cells
COLO-824 = assay type: functional, cell-based, Homo sapiens; conditions: Homo sapiens, COLO-824
Description: SANGER: Inhibition of human COLO-824 cell growth in a cell viability assay.

COR-L105 = assay type: functional, cell-based, Homo sapiens; conditions: Homo sapiens, COR-L105;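 further: cell growth inhibition determined with a viability assay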
Description: SANGER: Inhibition of human COR-L105 cell growth in a cell viability assay.

COR-L88 = assay type: functional, cell-based; conditions: Homo sapiens;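 further: growth inhibition of COR-L88 cells, read out with a cell viability assay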
Description: SANGER: Inhibition of human COR-L88 cell growth in a cell viability assay.

CW-2 = assay type: functional, cell-based, Homo sapiens; conditions: Homo sapiens, CW-2;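 further: growth inhibition of CW-2 cells, read out by a cell viability assay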
Description: SANGER: Inhibition of human CW-2 cell growth in a cell viability assay.

D-247MG = assay type: functional, cell-based, Homo sapiens; conditions: Homo sapiens, D-247MG
Description: SANGER: Inhibition of human D-247MG cell growth in a cell viability assay.

DBTRG-05MG = assay type: functional, cell-based, Homo sapiens; conditions: Homo sapiens, DBTRG-05MG;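 further: cell viability assay measuring growth inhibition of human DBTRG-05MG cells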
Description: SANGER: Inhibition of human DBTRG-05MG cell growth in a cell viability assay.

DMS-114 = assay type: functional, cell-based, Homo sapiens; conditions: Homo sapiens, DMS-114
DoTc2-4510 = assay type: functional, cell-based, Homo sapiens; conditions: Homo sapiens, DoTc2-4510
ES3 = assay type: functional, cell-based, Homo sapiens; conditions: Homo sapiens, ES3;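 further: growth inhibition of ES3 cells, read out with a cell viability assay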
Description: SANGER: Inhibition of human ES3 cell growth in a cell viability assay.

EW-16 = assay type: functional, cell-based, Homo sapiens; conditions: Homo sapiens, EW-16;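 further: growth inhibition of human EW-16 cells, read out as cell viability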
Description: SANGER: Inhibition of human EW-16 cell growth in a cell viability assay.

G-401 = assay type: functional, cell-based, Homo sapiens; conditions: Homo sapiens, G-401
Description: SANGER: Inhibition of human G-401 cell growth in a cell viability assay.

GI-1 = assay type: functional, cell-based, Homo sapiens; conditions: Homo sapiens, GI-1;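 further: growth inhibition of human GI-1 cells, measured with a cell viability readout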
Description: SANGER: Inhibition of human GI-1 cell growth in a cell viability assay.

GP5d = assay type: functional, cell-based, Homo sapiens; conditions: Homo sapiens, GP5d;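 further: growth inhibition of human GP5d cells, read out with a cell viability assay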
Description: SANGER: Inhibition of human GP5d cell growth in a cell viability assay.

HD-MY-Z = assay type: functional, cell-based, Homo sapiens; conditions: Homo sapiens, HD-MY-Z;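 further: growth inhibition of HD-MY-Z cells, read out with a cell viability assay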
Description: SANGER: Inhibition of human HD-MY-Z cell growth in a cell viability assay.

HT-1376 = assay type: functional, cell-based, Homo sapiens; conditions: Homo sapiens, HT-1376
Description: SANGER: Inhibition of human HT-1376 cell growth in a cell viability assay.

Huh-7 = assay type: functional, cell-based, Homo sapiens; conditions: Homo sapiens, Huh-7;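 further: HuH-7 cell growth inhibition, read out with a cell viability assay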
Description: SANGER: Inhibition of human HuH-7 cell growth in a cell viability assay.

IST-MES1 = assay type: functional, cell-based, Homo sapiens; conditions: Homo sapiens, IST-MES1;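 further: growth inhibition of IST-MES1 cells, measured with a cell viability assay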
Description: SANGER: Inhibition of human IST-MES1 cell growth in a cell viability assay.

K562 = assay type: functional, cell-based; conditions: Homo sapiens
Description: SANGER: Inhibition of human K-562 cell growth in a cell viability assay.

LB2518-MEL = assay type: functional, cell-based, Homo sapiens; conditions: Homo sapiens, LB2518-MEL;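 further: growth inhibition of human LB2518-MEL cells, measured with a cell viability assay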
Description: SANGER: Inhibition of human LB2518-MEL cell growth in a cell viability assay.

LB771-HNC = assay type: functional, cell-based, Homo sapiens; conditions: Homo sapiens, LB771-HNC;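 further: growth inhibition of LB771-HNC human cells, read out with a cell viability assay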
Description: SANGER: Inhibition of human LB771-HNC cell growth in a cell viability assay.

M14 = assay type: functional, cell-based, Homo sapiens; conditions: Homo sapiens, M14;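 further: growth inhibition of M14 cells, read out with a cell viability assay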
Description: SANGER: Inhibition of human M14 cell growth in a cell viability assay.

MDA-MB-175-VII = assay type: functional, cell-based, Homo sapiens; conditions: Homo sapiens, MDA-MB-175-VII
MN-60 = assay type: functional, cell-based; conditions: Homo sapiens;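 further: growth inhibition of the MN-60 cell line, determined with a cell viability assay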
Description: SANGER: Inhibition of human MN-60 cell growth in a cell viability assay.

NB13 = assay type: functional, cell-based, Homo sapiens; conditions: Homo sapiens, NB13;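 further: cell viability readout measuring growth inhibition of human NB13 cells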
Description: SANGER: Inhibition of human NB13 cell growth in a cell viability assay.

NB69 = assay type: functional, cell-based, Homo sapiens; conditions: Homo sapiens, NB69;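 further: growth inhibition of NB69 cells, determined by a cell viability assay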
Description: SANGER: Inhibition of human NB69 cell growth in a cell viability assay.

NCI-H1563 = assay type: functional, cell-based, Homo sapiens; conditions: Homo sapiens, NCI-H1563;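 further: growth inhibition of human NCI-H1563 cells, read out with a cell viability assay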
Description: SANGER: Inhibition of human NCI-H1563 cell growth in a cell viability assay.

NCI-H1650 = assay type: functional, cell-based, Homo sapiens; conditions: Homo sapiens, NCI-H1650;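 further: growth inhibition of human NCI-H1650 cells measured by a cell viability assay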
Description: SANGER: Inhibition of human NCI-H1650 cell growth in a cell viability assay.

NCI-H23 = assay type: functional, cell-based, Homo sapiens; conditions: Homo sapiens, NCI-H23;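 further: cell viability assay measuring growth inhibition of NCI-H23 cells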
Description: SANGER: Inhibition of human NCI-H23 cell growth in a cell viability assay.

NCI-H596 = assay type: functional, cell-based, Homo sapiens; conditions: Homo sapiens, NCI-H596;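 further: growth inhibition of NCI-H596 cells, read out with a cell viability assay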
Description: SANGER: Inhibition of human NCI-H596 cell growth in a cell viability assay.

NCI-N87 = assay type: functional, cell-based, Homo sapiens; conditions: Homo sapiens, NCI-N87;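 further: growth inhibition of human NCI-N87 cells, read out with a cell viability assay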
Description: SANGER: Inhibition of human NCI-N87 cell growth in a cell viability assay.

OAW-28 = assay type: functional, cell-based, Homo sapiens; conditions: Homo sapiens, OAW-28;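 further: growth inhibition of OAW-28 cells, read out with a cell viability assay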
Description: SANGER: Inhibition of human OAW-28 cell growth in a cell viability assay.

P30-OHK = assay type: functional, cell-based; conditions: Homo sapiens;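 further: growth inhibition of the P30-OHK cell line, read out with a cell viability assay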
Description: SANGER: Inhibition of human P30-OHK cell growth in a cell viability assay.

PANC-03-27 = assay type: functional, cell-based, Homo sapiens; conditions: Homo sapiens, PANC-03-27
Description: SANGER: Inhibition of human PANC-03-27 cell growth in a cell viability assay.

SF-268 = assay type: functional, cell-based, Homo sapiens; conditions: Homo sapiens, SF-268;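 further: growth inhibition of SF-268 cells determined with a cell viability assay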
Description: SANGER: Inhibition of human SF268 cell growth in a cell viability assay.

SK-N-FI = assay type: functional, cell-based, Homo sapiens; conditions: Homo sapiens, SK-N-FI;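 further: cell viability assay measuring growth inhibition of human SK-N-FI cells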
Description: SANGER: Inhibition of human SK-N-FI cell growth in a cell viability assay.

SW1710 = assay type: functional, cell-based, Homo sapiens; conditions: Homo sapiens, SW1710;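 further: growth inhibition of SW1710 cells, determined with a cell viability assay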
Description: SANGER: Inhibition of human SW1710 cell growth in a cell viability assay.

SW1990 = assay type: functional, cell-based, Homo sapiens; conditions: Homo sapiens, SW1990;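 further: cell growth inhibition determined with a viability assay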
Description: SANGER: Inhibition of human SW1990 cell growth in a cell viability assay.

T84 = assay type: functional, cell-based, Homo sapiens; conditions: Homo sapiens, T84;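 further: growth inhibition measured with a cell viability readout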
Description: SANGER: Inhibition of human T84 cell growth in a cell viability assay.

ACHN = assay type: functional, cell-based, Homo sapiens; conditions: Homo sapiens, ACHN;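 further: cell viability read-out used to gauge how strongly growth of human ACHN cells is suppressed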
Description: SANGER: Inhibition of human ACHN cell growth in a cell viability assay.

AU565 = assay type: functional, cell-based, Homo sapiens; conditions: Homo sapiens, AU565;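 further: cell viability assay measuring growth inhibition of human AU565 cells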
Description: SANGER: Inhibition of human AU565 cell growth in a cell viability assay.

ASPC1 = assay type: functional, cell-based, Homo sapiens; conditions: Homo sapiens, ASPC1;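 further: growth inhibition of AsPC-1 cells, read out with a cell viability assay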
Description: SANGER: Inhibition of human AsPC-1 cell growth in a cell viability assay.

CAL-120 = assay type: functional, cell-based, Homo sapiens; conditions: Homo sapiens, CAL-120;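 further: cell growth inhibition, read out as cell viability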
Description: SANGER: Inhibition of human CAL-120 cell growth in a cell viability assay.

U-118-MG = assay type: functional, cell-based, Homo sapiens; conditions: Homo sapiens, U-118-MG
Description: SANGER: Inhibition of human U-118-MG cell growth in a cell viability assay.

UMUC3 = assay type: functional, cell-based, Homo sapiens; conditions: Homo sapiens, UMUC3;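 further: growth inhibition of human UM-UC-3 cells, read out with a cell viability assay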
Description: SANGER: Inhibition of human UM-UC-3 cell growth in a cell viability assay.

VA-ES-BJ = assay type: functional, cell-based, Homo sapiens; conditions: Homo sapiens, VA-ES-BJ;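 further: growth inhibition of the VA-ES-BJ cell line, read out by a cell viability assay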
Description: SANGER: Inhibition of human VA-ES-BJ cell growth in a cell viability assay.

K5 = assay type: functional, cell-based, Homo sapiens; conditions: Homo sapiens, K5
Description: SANGER: Inhibition of human K5 cell growth in a cell viability assay.

MMAC-SF = assay type: functional, cell-based, Homo sapiens; conditions: Homo sapiens, MMAC-SF;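 further: growth inhibition of human MMAC-SF cells, read out with a cell viability assay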
Description: SANGER: Inhibition of human MMAC-SF cell growth in a cell viability assay.

A 172 = assay type: functional, cell-based, Homo sapiens; conditions: Homo sapiens, A 172;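 further: growth inhibition of A172 cells, measured with a cell viability readout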
Description: SANGER: Inhibition of human A172 cell growth in a cell viability assay.

Measured: pIC50

COc1cc(F)c(F)c(Nc2ccc(I)cc2F)c1NS(=O)(=O)C1(CC(O)CO)CC1 (stereo not drawn)
7.54: M14
5.72: SK-N-FI
7.11: LB2518-MEL
6.05: HD-MY-Z
5.71: G-401
6.25: NB69
5.97: ASPC1
5.59: MDA-MB-175-VII
6.11: PANC-03-27
5.35: NCI-H1563
5.83: Huh-7
5.70: SW1710
not listed: K5 | MMAC-SF | A 172
< 5.30: all other assays above

O=C1N=C(NCc2cccs2)S/C1=C\c1ccc2ncccc2c1
5.46: COR-L88
5.36: MN-60
5.56: UMUC3
5.79: SW1710
< 5.30: all other assays above

COc1ccc(-c2ccc3c(N4CCOC[C@@H]4C)nc(N4CCOC[C@@H]4C)nc3n2)cc1CO [AZD-8055]
6.36: Huh-7
6.49: P30-OHK
5.73: U-118-MG
6.51: G-401
6.10: NCI-H1563
5.90: NCI-H596
6.37: COR-L88
5.94: NB13
5.84: EW-16
5.72: ACHN
6.47: VA-ES-BJ
6.87: NB69
6.03: DMS-114
5.83: SW1990 | UMUC3
6.08: HD-MY-Z
5.81: NCI-H23 | SK-N-FI
6.24: MDA-MB-175-VII
6.13: ASPC1
6.33: M14
6.07: CAL-120
6.20: SW1710
5.99: PANC-03-27
6.17: MN-60
5.95: ES3
not listed: K5 | MMAC-SF | A 172
< 5.70: all other assays above

CN(Cc1cnc2nc(N)nc(N)c2n1)c1ccc(C(=O)N[C@@H](CCC(=O)O)C(=O)O)cc1 [METHOTREXATE]
6.77: DBTRG-05MG
7.07: ACHN
7.36: P30-OHK
7.21: AU565
7.18: MN-60
7.22: K5
not listed: COR-L88
< 6.70: all other assays above

COc1ccc(C2=N[C@@H](c3ccc(Cl)cc3)[C@@H](c3ccc(Cl)cc3)N2C(=O)N2CCNC(=O)C2)c(OC(C)C)c1 [NUTLIN-3]
5.13: NCI-H1650
5.57: A 172
5.85: K5
5.46: MN-60
5.47: G-401
5.32: D-247MG
5.59: VA-ES-BJ
5.36: IST-MES1
5.58: NB69
< 5.10: all other assays above
